# Results taken from PMC12595434, “Development of retinoid nuclear receptor pathway antagonists through targeting aldehyde dehydrogenase 1A3” (iScience, 2025).
# Where “and” joins values, the source holds several entries; their conditions need not be identical. Identical values can stand only once.
# What was measured:
# [1] = molecular target: T1, TPX2 (Homo sapiens, UniProt Q9ULW0); assay: Thermal proteome profiling (TPP) in A375 cells; assay type: cell-based; conditions: TPX2, 100 nM
# T1 construct: Treated A375 cells were harvested from 10 × 15 cm plates; endogenous in cells; host or cells: A375 melanoma cells
# [2] = molecular target: Alpha1A (Homo sapiens, UniProt P35348); assay: Off-target profiling panel; assay type: binding; conditions: read-out: Inhibition by MBE1 at 10 μM (%)
# [3] = molecular target: CB2 (Homo sapiens, UniProt P34972); assay: Off-target profiling panel; assay type: binding; conditions: read-out: Inhibition by MBE1 at 10 μM (%)
# [4] = tested on: LN229 cells; assay: Metabolomic profiling of treated cell lines (raw metabolite counts); assay type: cell-based, human; conditions: LN229:MBE, replicates
# From the text: Supplement mmc8.xlsx, sheet "Supplement Table 7" | column: LN229:MBE
# [5] = Serum concentration on MBE1.5-formulated diet; assay type: in vivo, mouse
# Experimental: Finally, to establish a pharmacokinetic profile throughout dosing, MBE1.5 was analyzed in serum 12 h post dose on day 1 and day 7. […] To accommodate consistent plasma concentrations without accumulation, MBE1.5 was formulated to a lower concentration in mouse diet that would administer a dose equivalent to 25 mg/kg daily. This formulated diet was provided to mice for 5 days, at which point serum was analyzed for MBE1.5 concentration at 6:30 a.m. and 4:00 p.m. on day 5 to capture differences in mouse feeding cycles.
# No statistical method was used to predetermine the number of animals needed across experiments. […]
# proteome profiling in A375 cells was performed in DMSO and at two concentrations of MBE1 using a 10 temperature melting curve for isolation, followed by proteomic analysis, filtering and mapping peptide frequency as a composite melting curve, n=3 biological replicates per condition-temperature. […] ALDH1A3 or NPTN were assessed by WB to confirm the stabilization of ALDH1A3 but not NPTN (55kD, as indicated by arrow) by MBE1. […]
# analysis of MBE1.5 following identification of proper formulations and administration to fasted male CD1 mice at 1 mg/kg intravenous (IV) and 10 mg/kg oral gavage (PO). n = 3 mice per arm. […] Upon acclimation, serum MBE1.5 concentrations were calculated following blood draws at 6:30 am and 4 pm. n = 5 mice per arm. […]
# T1 sequence (Q9ULW0 whole entry): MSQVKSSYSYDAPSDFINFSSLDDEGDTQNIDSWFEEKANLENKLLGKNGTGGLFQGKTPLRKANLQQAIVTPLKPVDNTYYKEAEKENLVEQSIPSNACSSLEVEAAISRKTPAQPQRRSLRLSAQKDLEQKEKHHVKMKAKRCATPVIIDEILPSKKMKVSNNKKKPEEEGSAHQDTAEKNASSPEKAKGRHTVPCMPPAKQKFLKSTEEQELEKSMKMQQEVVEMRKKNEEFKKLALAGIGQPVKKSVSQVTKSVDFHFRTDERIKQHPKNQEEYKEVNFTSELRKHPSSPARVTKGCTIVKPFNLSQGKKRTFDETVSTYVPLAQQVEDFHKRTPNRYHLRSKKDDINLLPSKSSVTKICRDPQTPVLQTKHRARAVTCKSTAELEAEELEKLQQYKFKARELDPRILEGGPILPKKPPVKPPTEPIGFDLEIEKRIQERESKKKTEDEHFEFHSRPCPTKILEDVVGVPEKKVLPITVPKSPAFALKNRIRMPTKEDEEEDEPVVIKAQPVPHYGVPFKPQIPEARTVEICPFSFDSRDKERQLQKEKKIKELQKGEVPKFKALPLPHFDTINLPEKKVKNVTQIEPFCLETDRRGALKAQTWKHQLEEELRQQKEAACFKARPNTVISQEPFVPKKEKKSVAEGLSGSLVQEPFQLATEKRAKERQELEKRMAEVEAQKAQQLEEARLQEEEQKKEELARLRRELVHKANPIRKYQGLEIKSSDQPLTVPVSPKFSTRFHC
# Chain of CB2 (P34972 whole entry): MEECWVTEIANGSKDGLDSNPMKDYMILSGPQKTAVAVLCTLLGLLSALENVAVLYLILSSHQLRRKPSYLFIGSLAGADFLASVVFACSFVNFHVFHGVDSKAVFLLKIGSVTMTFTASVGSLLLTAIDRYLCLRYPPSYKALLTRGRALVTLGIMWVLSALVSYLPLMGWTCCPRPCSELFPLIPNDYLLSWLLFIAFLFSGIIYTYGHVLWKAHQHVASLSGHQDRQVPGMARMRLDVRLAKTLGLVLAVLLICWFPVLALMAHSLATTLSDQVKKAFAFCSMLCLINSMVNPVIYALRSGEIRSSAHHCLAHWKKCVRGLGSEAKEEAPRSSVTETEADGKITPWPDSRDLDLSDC
# Chain of Alpha1A (P35348 whole entry): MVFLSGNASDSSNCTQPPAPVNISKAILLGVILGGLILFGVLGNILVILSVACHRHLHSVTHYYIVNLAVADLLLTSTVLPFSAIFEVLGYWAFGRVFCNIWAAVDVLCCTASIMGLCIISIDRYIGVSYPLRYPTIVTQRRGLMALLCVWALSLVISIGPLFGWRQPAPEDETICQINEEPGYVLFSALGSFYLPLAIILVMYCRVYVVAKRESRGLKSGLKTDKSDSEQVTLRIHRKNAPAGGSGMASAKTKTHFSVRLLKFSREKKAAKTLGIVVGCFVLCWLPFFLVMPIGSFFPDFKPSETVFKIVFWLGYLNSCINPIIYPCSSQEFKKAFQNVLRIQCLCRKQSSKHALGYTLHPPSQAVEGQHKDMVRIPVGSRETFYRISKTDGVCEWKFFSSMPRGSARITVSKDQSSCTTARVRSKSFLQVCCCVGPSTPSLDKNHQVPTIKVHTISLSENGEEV
structure (smiles),measurement,setting,value
"CCc1cnccc1C(=O)Nc1cc2c(cc1F)NC(=O)CC2 [MBE1, 3-ethyl-N-(7-fluoro-2-oxo-3,4-dihydro-1H-quinolin-6-yl)pyridine-4-carboxamide]",100nM MBE1 Tm,[1],64
same,DMSO-100nM MBE1 TM,[1],-7.655
same,inhibition at 10 µM,[2],-3.34%
same,inhibition at 10 µM,[3],5.07%
same,Raw counts of 2-Hydroxybutyric acid,[4],261573 and 302862 and 279756
same,Raw counts of 3-Hydroxybutyric acid,[4],1309454 and 1164963 and 1206122
same,Raw counts of 3-Phosphoglycerate,[4],11596.7 and 6745.18 and 3724.31
same,Raw counts of 3-Phosphoserine,[4],6232.78 and 2797.63 and 5215.65
same,Raw counts of 6-Phosphogluconate,[4],5157.27 and 5734.83 and 2668.31
same,Raw counts of Carbamoyl phosphate,[4],45195.2 and 38665.3 and 41961.6
same,Raw counts of Citrulline,[4],498544 and 479590 and 504161
same,Raw counts of Cytidine,[4],67589.2 and 84265.7 and 71881.1
same,Raw counts of Hypoxanthine,[4],1333474 and 1740688 and 1516660
same,Raw counts of Isoleucine,[4],1.29E+08 and 1.33E+08 and 1.18E+08
same,Raw counts of Lactate,[4],3.62E+08 and 3.37E+08 and 3.31E+08
same,Raw counts of Leucine,[4],1.02E+08 and 1.11E+08 and 1.01E+08
same,Raw counts of Methionine,[4],1.89E+07 and 2.12E+07 and 1.99E+07
same,Raw counts of N-acetyl-glutamine,[4],31448.3 and 20555.9 and 36320.3
same,Raw counts of Orotate,[4],0
same,Raw counts of Phenylalanine,[4],7.59E+07 and 8.45E+07 and 7.68E+07
same,Raw counts of Phosphoenolpyruvate,[4],0 and 2071.2 and 2356.81
same,Raw counts of Pyridoxine,[4],4.91E+07 and 5.30E+07 and 4.89E+07
same,Raw counts of Pyruvate,[4],2231037 and 2192759 and 1890595
same,Raw counts of Ribitol,[4],1641581 and 2032681 and 3007411
same,Raw counts of Sorbitol,[4],2.02E+07 and 2.14E+07 and 2.12E+07
same,Raw counts of Taurine,[4],1.22E+07 and 1.24E+07 and 1.15E+07
same,Raw counts of Tryptophan,[4],1.21E+07 and 1.27E+07 and 1.15E+07
same,Raw counts of Tyrosine,[4],4.34E+07 and 4.46E+07 and 4.65E+07
same,Raw counts of UDP,[4],108325 and 86766.9 and 84670.8
same,Raw counts of Uracil,[4],1116835 and 1114912 and 1017401
same,Raw counts of Uridine,[4],932418 and 1052824 and 956012
same,Raw counts of Valine,[4],6.74E+07 and 7.26E+07 and 6.71E+07
same,Raw counts of Xanthine,[4],9846835 and 1.10E+07 and 1.04E+07
"CCc1ccccc1C(=O)Nc1cc2c(cc1F)NC(=O)CC2 [MBE1.5, 2-ethyl-N-(7-fluoro-2-oxo-3,4-dihydro-1H-quinolin-6-yl)benzamide]",concentration at 5 day,"[5]; C57BL/6, mouse, serum, oral, 25 mg/kg daily, day 5, read-out: nadir serum concentration",~270 nM
same,nadir serum concentration as multiple of IC50 in the retinoid assay,[5]; day 5,more than 100 fold
